Read-outs that look alike come from different tables or passages of the source.
Assays:
TF-1 = assay: Cell growth assay, TF-1; format: cell-based; details: Homo sapiens, TF-1, 240 h; CA, after 10 days; read-out: Mean GI50 (nM), TF-1
Method: (§1) Cell Culture. All media was supplemented with 100 U/mL penicillin and 100 μg/mL streptomycin. Human cancer cell lines were grown in the following media: MV4; 11, RS4; 11, K562, HEL, MOLM-14, MEG-01 in RPMI-1640, 10% FBS; SET-2 in RPMI-1640, 20% FBS; UKE-1 in RPMI-1640, 10% FBS, 10% horse serum and 1 μM hydrocortisone; SKNO-1 and TF-1 in RPMI-1640, 10% FBS, and 10 or 2 ng/mL GM-CSF, respectively; HaCaT in DMEM, 10% FBS; and HCT116 in McCoy's 5 A, 10% FBS (proliferation assay) or DMEM, 10% FBS (gene expression study). HepG2, MV4;11, RS4;11, MEG-01, TF-1, HCT116 and K562 were from ATCC. SKNO-1 was from DSMZ. HEL, UKE-1, and SET-2 were provided by Ross L. Levine and HaCaT, MV4;11-mCLP, and MOLM-14 by Van Wilson, Andrew L. Kung, and Scott A. Armstrong, respectively. MOLM-14 cells were authenticated by STR profiling and flow cytometry and all cell lines were routinely tested and found to be negative for mycoplasma.

[1] = Pharmacokinetic study in mice; format: in vivo; details: once-daily intraperitoneal (IP) dosing
Method: In Vivo Studies. Studies were performed at Charles River Laboratories (CRL) and Dana Farber Cancer Institute (DFCI) where indicated and approved by Harvard University and each institution's respective animal care and use committee. For pharmacokinetic studies, serial blood samples from 7 week old male CD-1 mice (n=3 per timepoint) were collected (no blinding) into K2EDTA tubes, centrifuged, transferred into 96-well plates (matrix tubes), stored at −20° C., and analysed by HPLC/MS/MS (in-life performed at CRL). Study size was determined by the need for three blood samples per timepoint with three blood samples collected per mouse. The MV4; 11 xenograft model were performed as previously described (Etchin, J. et al. Antileukemic activity of nuclear export inhibitors that spare normal hematopoietic cells. Leukemia 27, 66-74 (2013); in-life performed at DFCI) Two million MV4;11-mCLP cells were injected into the tail vein of 7-week-old female NOD-SCID-IL2Rcγ^null (NSG) mice (The Jackson Laboratory) and tumor burden was assessed by bioluminescence imaging (BLI) using an IVIS Spectrum system (Caliper Life Sciences). […] After 30 days, blood counts were obtained (Hemavet 950 F, Drew Scientific) and spleen, femur, and peripheral blood cells were collected and analysed by flow cytometry (LSR Fortessa, BD Biosciences) from 3 mice/group. […]

[2] = molecular target: T1, CDK13 in MOLM-14 cell lysate (Homo sapiens, UniProt Q14004); assay: Native kinase capture immunoblot, CDK13; format: binding
T1 construct: endogenous in cells; host or cells: MOLM-14 cell lysate
Method: Native Kinase Capture Immunoblot and Native Kinome-Wide Profiling. […] Experiment was performed twice with one immunoblot shown.

SKNO-1 = assay: Cell growth assay, SKNO-1; format: cell-based; details: Homo sapiens, SKNO-1, 240 h
Method: All media was supplemented with 100 U/mL penicillin and 100 μg/mL streptomycin. Human cancer cell lines were grown in the following media: MV4; 11, K562, MOLM-14 in RPMI-1640, 10% FBS; SKNO-1 in RPMI-1640, 10% FBS, and 10 ng/mL GM-CSF; MV4;11 and K562 were from ATCC. SKNO-1 was from DSMZ.
as §1

HEL = assay: Cell growth assay, HEL; format: cell-based; details: Homo sapiens, 240 h, CA, after 10 days, read-out: Mean GI50 (nM), HEL
Method: as §1

RS4;11 = assay: Cell growth assay, RS4;11; format: cell-based; details: Homo sapiens, RS4-11, 240 h; CA, after 10 days; read-out: Mean GI50 (nM), RS4;11
Method: as §1

HCT116 = assay: Cell growth assay, HCT116 (CellTiter-Blue); format: cell-based; details: Homo sapiens
Method: as §1

T1 sequence (Q14004 whole entry): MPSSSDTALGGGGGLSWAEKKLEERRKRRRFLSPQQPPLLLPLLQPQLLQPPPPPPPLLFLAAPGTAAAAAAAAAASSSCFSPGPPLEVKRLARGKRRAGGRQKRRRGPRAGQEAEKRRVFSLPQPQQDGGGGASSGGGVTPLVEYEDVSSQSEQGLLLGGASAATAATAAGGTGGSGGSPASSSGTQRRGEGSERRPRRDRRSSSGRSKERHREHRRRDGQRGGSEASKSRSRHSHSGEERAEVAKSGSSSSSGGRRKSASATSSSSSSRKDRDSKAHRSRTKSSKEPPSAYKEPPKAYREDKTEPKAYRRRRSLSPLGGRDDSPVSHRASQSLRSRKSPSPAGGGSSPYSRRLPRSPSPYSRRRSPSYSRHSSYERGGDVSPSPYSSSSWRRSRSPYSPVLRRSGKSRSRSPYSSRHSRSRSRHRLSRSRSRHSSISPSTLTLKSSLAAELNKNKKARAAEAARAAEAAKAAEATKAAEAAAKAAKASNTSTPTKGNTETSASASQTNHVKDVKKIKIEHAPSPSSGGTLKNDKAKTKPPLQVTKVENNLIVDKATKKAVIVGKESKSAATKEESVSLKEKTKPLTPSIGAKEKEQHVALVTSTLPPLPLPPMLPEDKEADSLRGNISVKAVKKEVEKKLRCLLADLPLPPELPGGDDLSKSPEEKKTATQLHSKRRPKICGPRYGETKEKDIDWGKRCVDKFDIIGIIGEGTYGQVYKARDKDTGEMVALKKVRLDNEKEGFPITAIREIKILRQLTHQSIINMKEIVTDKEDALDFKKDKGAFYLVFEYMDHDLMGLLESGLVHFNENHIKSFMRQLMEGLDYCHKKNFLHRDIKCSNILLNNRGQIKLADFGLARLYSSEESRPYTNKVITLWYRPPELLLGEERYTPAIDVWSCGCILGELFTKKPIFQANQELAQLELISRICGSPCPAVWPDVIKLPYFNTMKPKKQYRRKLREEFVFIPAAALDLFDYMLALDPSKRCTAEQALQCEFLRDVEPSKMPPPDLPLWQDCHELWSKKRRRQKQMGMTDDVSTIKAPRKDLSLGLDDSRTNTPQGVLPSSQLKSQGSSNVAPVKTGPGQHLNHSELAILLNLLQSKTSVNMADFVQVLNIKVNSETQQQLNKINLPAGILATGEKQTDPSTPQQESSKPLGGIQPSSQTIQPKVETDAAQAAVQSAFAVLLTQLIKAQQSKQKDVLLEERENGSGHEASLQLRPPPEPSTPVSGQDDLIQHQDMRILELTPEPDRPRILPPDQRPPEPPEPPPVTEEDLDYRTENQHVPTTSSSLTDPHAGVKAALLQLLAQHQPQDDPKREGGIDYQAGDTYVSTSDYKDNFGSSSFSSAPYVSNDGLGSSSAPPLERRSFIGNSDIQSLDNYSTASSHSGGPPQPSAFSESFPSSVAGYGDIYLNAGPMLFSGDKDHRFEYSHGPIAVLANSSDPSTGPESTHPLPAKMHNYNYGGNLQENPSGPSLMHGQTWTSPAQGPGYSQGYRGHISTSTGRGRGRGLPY
T1 sequence (O75909 whole entry partner): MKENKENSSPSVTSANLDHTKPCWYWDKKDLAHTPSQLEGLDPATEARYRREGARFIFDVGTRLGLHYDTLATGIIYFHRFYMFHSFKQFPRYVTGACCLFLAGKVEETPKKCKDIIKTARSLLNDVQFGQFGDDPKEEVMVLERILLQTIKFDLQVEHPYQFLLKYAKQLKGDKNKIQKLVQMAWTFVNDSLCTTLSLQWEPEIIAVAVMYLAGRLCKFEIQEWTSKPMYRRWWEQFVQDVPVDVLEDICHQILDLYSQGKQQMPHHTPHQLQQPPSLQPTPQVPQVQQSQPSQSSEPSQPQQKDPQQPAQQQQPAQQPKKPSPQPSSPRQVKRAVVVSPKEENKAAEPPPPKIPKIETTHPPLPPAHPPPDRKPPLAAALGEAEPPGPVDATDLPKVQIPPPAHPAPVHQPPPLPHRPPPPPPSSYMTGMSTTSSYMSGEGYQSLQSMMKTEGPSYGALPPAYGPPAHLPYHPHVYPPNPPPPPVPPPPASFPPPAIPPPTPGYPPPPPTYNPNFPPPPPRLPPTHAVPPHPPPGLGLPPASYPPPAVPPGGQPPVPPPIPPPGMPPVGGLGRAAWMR

CN(C)[C@H]1C[C@@]23CC[C@@]4(O2)C(=CC[C@@]2(C)[C@@H](c5ccc6ccncc6c5)CC[C@H]24)C=C3[C@@H](O)[C@@H]1O [CA, cortistatin A]
GI50 (TF-1): 350 nM
pharmacokinetic properties [1]: acceptable pharmacokinetic properties
binding of CDK13 (no binding at up to) [2]: > 2500 nM
GI50 (SKNO-1; CA, after 10 days, read-out: Mean GI50 (nM), SKNO-1): 1 nM
GI50 (SKNO-1; read-out: SKNO-1 GI50 day 10): < 0.4 nM
GI50 (HEL): > 1000 nM
GI50 (RS4;11): 3 nM
GI50 (HCT116; HCT-116, 168 h, after 7 days, read-out: Mean GI50 (nM), HCT116): > 1000 nM
GI50 (HCT116; HCT-116, Table 5, read-out: GI50 (nM), HCT116): > 1000 nM
